Patent US11000033B2, “Ketone or oxime compound, and herbicide” (NISSAN CHEMICAL CORPORATION, priority 2014, dated 2021)

Key:
Assay type in all cases: in vivo
Abutilon theophrasti = test: Test Example 4: herbicidal effect by soil treatment (symbol M)
Outline: (§1)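 Seeds were sown in sterilized diluvial soil, covered with about 1.5 cm of soil, and the soil surface was sprayed with a water-diluted emulsion of the compound at a predetermined rate. Plants grew in a greenhouse at 25° C. to 30° C.; effects were scored visually 3 weeks after application.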

corn = test: Test Example 5: effect on crop by foliage application, plastic box (symbol c); settings: 320 g/ha, 3 weeks after application
Outline: (§2)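 Crop seed is sown alongside grass and broadleaf weed species in spots in sterilized diluvial soil, then covered to a depth of about 1.5 cm. Plants grow in a greenhouse kept at 25° C. to 30° C.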

[1] = system: Echinochloa crus-galli var. crus-galli; test: Test Example 3: herbicidal effect by foliage application, Wagner pot (symbol H); settings: application herbicide amount 320 g/ha
Outline: (§3)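 Alluvial soil was flooded to a depth of 0.1–0.5 cm, seeded with the weeds and rice, and kept in a greenhouse at 25–30 °C. After 14 days of growth, the foliage received a small-sprayer application of emulsion diluted to the intended rate; injury was rated at 3 weeks.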

Veronica persica = test: Test Example 4: herbicidal effect by soil treatment (symbol R)
Outline: as §1

Avena fatua = test: Test Example 4: herbicidal effect by soil treatment (symbol I)
Outline: as §1

Scirpus juncoides [2] = test: Test Example 1: herbicidal activity, application before weed generation in submerged conditions (symbol B); settings: application herbicide amount 320 g/ha
Outline: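 0–5 visual score, 3 wk post-application. Submerged pots, alluvial soil, water 4 cm; seeds sown mixed, rice at 2.5 leaves transplanted. Emulsion diluted to predetermined dose, applied to water surface at sowing. 25–30 °C greenhouse.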

Alopecurus myosuroides [3] = test: Test Example 4: herbicidal effect by soil treatment (symbol J)
Outline: as §1

Setaria viridis = test: Test Example 4: herbicidal effect by soil treatment (symbol G)
Outline: as §1

rapeseed = test: Test Example 5: effect on crop by foliage application, plastic box (symbol g); settings: 320 g/ha, 3 weeks after application
Outline: as §2

[4] = system: Echinochloa oryzacola Vasing.; test: Test Example 2: herbicidal activity, application during weed generation in submerged conditions (symbol A); settings: Table 23; application herbicide amount 320 g/ha; grade 0-5 by criteria of Test Example 1
Outline: (§4)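 Weeds emerging under flooded conditions were treated with compound formulated as an emulsion and diluted with water to the intended herbicide amount, poured onto the surface of 4 cm standing water. Seeds had been co-sown in alluvial soil; plants grew at 25° C. to 30° C. and were assessed after 3 weeks.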

Alopecurus myosuroides [5] = test: Test Example 5: herbicidal effect by foliage application, plastic box (symbol J); settings: 320 g/ha, 3 weeks after application
Outline: (§5)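 Seeds were sown in sterilized diluvial soil, covered with about 1.5 cm of soil and grown 14 days in a greenhouse at 25° C. to 30° C. An emulsifiable formulation diluted in water to a set rate was sprayed over foliage, and injury was scored 3 weeks later.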

Apera spica-venti [6] = test: Test Example 4: herbicidal effect by soil treatment (symbol L)
Outline: as §1

Scirpus juncoides [7] = test: Test Example 2: herbicidal activity, application during weed generation in submerged conditions (symbol B); settings: Table 23; application herbicide amount 320 g/ha; grade 0-5 by criteria of Test Example 1
Outline: as §4

Apera spica-venti [8] = test: Test Example 5: herbicidal effect by foliage application, plastic box (symbol L); settings: 320 g/ha, 3 weeks after application
Outline: as §5

Cyperus difformis = test: Test Example 3: herbicidal effect by foliage application, Wagner pot (symbol E); settings: application herbicide amount 320 g/ha
Outline: as §3

[9] = application herbicide amount 320 g/ha

In the case of `COCCON=C(C)CC1CC(O)=C(c2c(C)cc(-n3cc(Cl)cn3)cc2C)C1=O` (stereo not drawn) [9-016], the “Herbicidal effect grade, M: Abutilon theophrasti” value (Abutilon theophrasti; [9]) is reported as 0 (Herbicidal ratio of 5% or lower (almost no effect)), the “c: corn, effect on crop grade” value (corn) is reported as 5 (Herbicidal ratio of 90% or more (almost completely withered)) and the “H (Echinochloa crus-galli var. crus-galli) herbicidal effect grade” value ([1]; Table 24) is reported as 5 (Herbicidal ratio of 90% or more (almost completely withered)). The “Herbicidal effect grade, R: Veronica persica” value (Veronica persica; [9]) was 0 (Herbicidal ratio of 5% or lower (almost no effect)), the “Herbicidal effect grade, I: Avena fatua” value (Avena fatua; [9]) was 2 (Herbicidal ratio of 20% or higher and lower than 40%) and the “B (Scirpus juncoides) herbicidal effect grade” value (Scirpus juncoides [2]) was 5 (Herbicidal ratio of 90% or more (almost completely withered)). The “Herbicidal effect grade, J: Alopecurus myosuroides” value (Alopecurus myosuroides [3]; [9]) was 5 (Herbicidal ratio of 90% or more (almost completely withered)), the “Herbicidal effect grade, G: Setaria viridis” value (Setaria viridis; [9]) was 5 (Herbicidal ratio of 90% or more (almost completely withered)) and the “g: rapeseed, effect on crop grade” value (rapeseed) was 3 (Herbicidal ratio of 40% or higher and lower than 70%). For the same compound, the “Herbicidal effect grade, A: Echinochloa oryzacola Vasing.” value [4] was 5 (Herbicidal ratio of 90% or more (almost completely withered)), the “J: Alopecurus myosuroides, herbicidal effect grade” value (Alopecurus myosuroides [5]) was 5 (Herbicidal ratio of 90% or more (almost completely withered)) and the “Herbicidal effect grade, L: Apera spica-venti” value (Apera spica-venti [6]; [9]) was 1 (Herbicidal ratio of 5% or higher and lower than 20%). The “Herbicidal effect grade, B: Scirpus juncoides” value (“Herbicidal effect grade, B” for short) (Scirpus juncoides [7]) was 4 (Herbicidal ratio of 70% or higher and lower than 90%), the “L: Apera spica-venti, herbicidal effect grade” value (Apera spica-venti [8]) was 5 (Herbicidal ratio of 90% or more (almost completely withered)) and the “E herbicidal effect grade” value (Cyperus difformis; Table 24) was 5 (Herbicidal ratio of 90% or more (almost completely withered)).

For `CON=C(C)CC1CC(OC(=O)N2CCOCC2)=C(c2c(C)cc(C)cc2C)C1=O` (stereo not drawn) [1-104], the “M: Abutilon theophrasti, herbicidal effect grade” value (Abutilon theophrasti; 320 g/ha) was 4 (Herbicidal ratio of 70% or higher and lower than 90%), the “c: corn, effect on crop (criteria 0-5)” value (corn) was 4 (Herbicidal ratio of 70% or higher and lower than 90%) and the “herbicidal effect on H (Echinochloa crus-galli var. crus-galli), grade 0-5” value [1] was 5 (Herbicidal ratio of 90% or more (almost completely withered)). For the same compound, the “R: Veronica persica, herbicidal effect grade” value (Veronica persica; 320 g/ha) was 0 (Herbicidal ratio of 5% or lower (almost no effect)), the “I: Avena fatua, herbicidal effect grade” value (Avena fatua; 320 g/ha) was 3 (Herbicidal ratio of 40% or higher and lower than 70%) and the “Herbicidal effect grade, B” value (Scirpus juncoides [2]) was 4 (Herbicidal ratio of 70% or higher and lower than 90%). For the same compound, the “J: Alopecurus myosuroides, herbicidal effect grade” value (Alopecurus myosuroides [3]; 320 g/ha) was 5 (Herbicidal ratio of 90% or more (almost completely withered)), the “G: Setaria viridis, herbicidal effect grade” value (Setaria viridis; 320 g/ha) was 5 (Herbicidal ratio of 90% or more (almost completely withered)) and the “g: rapeseed, effect on crop (criteria 0-5)” value (rapeseed) was 4 (Herbicidal ratio of 70% or higher and lower than 90%). For the same compound, the “Herbicidal effect grade, A: Echinochloa oryzacola Vasing.” value [4] was 5 (Herbicidal ratio of 90% or more (almost completely withered)), the “J: Alopecurus myosuroides, herbicidal effect (criteria 0-5)” value (Alopecurus myosuroides [5]) was 5 (Herbicidal ratio of 90% or more (almost completely withered)) and the “L: Apera spica-venti, herbicidal effect grade” value (Apera spica-venti [6]; 320 g/ha) was 5 (Herbicidal ratio of 90% or more (almost completely withered)). For the same compound, the “Herbicidal effect grade, B” value (Scirpus juncoides [7]) was 4 (Herbicidal ratio of 70% or higher and lower than 90%), the “L: Apera spica-venti, herbicidal effect (criteria 0-5)” value (Apera spica-venti [8]) was 5 (Herbicidal ratio of 90% or more (almost completely withered)) and the “herbicidal effect on E, grade 0-5” value (Cyperus difformis) was 5 (Herbicidal ratio of 90% or more (almost completely withered)).
